# Experimental data from patent US10322106B2, “Combinations of amisulpride and another anti-emetic for treating nausea and vomiting” (Acacia Pharma Limited, priority 2015, dated 2019).
# Key:
# [1] = test system: cisplatin-induced emesis; settings: ferrets; higher dosages; cited from earlier work
# [2] = test system: chemotherapy-induced nausea and vomiting (cisplatin or cyclophosphamide with epirubicin or doxorubicin); assay: Study 2: randomised, double blind Phase II study of oral amisulpride for prevention of acute and delayed phase chemotherapy-induced nausea and vomiting; assay type: in vivo, human
# Protocol: A randomised, double blind Phase II clinical study was conducted to characterise the dose-response of oral amisulpride for the prevention of acute and delayed phase nausea and vomiting in male and female patients. The patent population consisted of adult, chemotherapy-naïve cancer patients, receiving a first infusion of either cisplatin chemotherapy at a dose of 70 mg/m^2 or greater, or a combination of cyclophosphamide (500-1500 mg/m^2) and either epirubicin (60-100 mg/m^2) or doxorubicin (40-60 mg/m^2) for breast cancer. All patients received an intravenous injection of 20 mg of amisulpride (racemic mixture) and an intravenous injection of 8-16 mg ondansetron on the day of chemotherapy administration (i.e. day 1). The oral doses of amisulpride (racemic mixture) studied, along with placebo, were 10 mg, 20 mg or 40 mg each administered once per day on days 2-4 after chemotherapy. Specifically one capsule of amisulpride or its matching placebo, were taken as early as practically possible after waking of the patients each morning on days 2, 3 and 4. […] “Delayed phase response” means complete response (composite endpoint defined as no voting/retching and no use of rescue medication) in the period 24-120 hrs after chemo. There are other benefits of using a kit of the invention compared to three-drug regimen, such as reduced side-effects and better patient compliance.
# [3] = test system: cisplatin-induced nausea and vomiting; assay: Study 1: open label, ascending dose Phase II study of intravenous amisulpride in the prevention of cisplatin-induced nausea and vomiting; assay type: in vivo, human
# Protocol: This study was designed to find the optimum dose range of IV amisulpride for the kit and method of the invention. This was an open label, ascending dose, Phase II study to determine the minimum effective dose of intravenous amisulpride in the prevention of cisplatin-induced nausea and vomiting. The number of patients evaluated was 51. Doses of amisulpride (racemic mixture) administered were 2.5, 7.5 and 20 mg. A 20 mg dose of amisulpride was also administered with a standard dose of IV ondansetron.
# [4] = oral 10 mg AMI days 2-4 after IV OND + 20 mg AMI day 1, all subjects
# [5] = oral 10 mg AMI days 2-4 after IV OND + 20 mg AMI day 1, patients with acute phase CR
# [6] = oral 20 mg AMI days 2-4 after IV OND + 20 mg AMI day 1, all subjects
# [7] = oral 20 mg AMI days 2-4 after IV OND + 20 mg AMI day 1, patients with acute phase CR
# [8] = oral 40 mg AMI days 2-4 after IV OND + 20 mg AMI day 1, all subjects
# [9] = oral 40 mg AMI days 2-4 after IV OND + 20 mg AMI day 1, patients with acute phase CR
smiles,measurement,setting,value
CCN1CCCC1CNC(=O)c1cc(S(=O)(=O)CC)c(N)cc1OC (racemic) [amisulpride],"inhibiting cisplatin-induced emesis, dose dependence in words",[1],less effective at higher dosages
same,"Delayed phase response (complete response 24-120 hrs after chemo), in words","[2]; 10 mg oral amisulpride days 2-4, acute-phase responders",significantly better than placebo
same,"CR, 0-120 h",[2]; [4],36%
same,"CR, 0-120 h (number of subjects)",[2]; [4],21
same,"CR, 24-120 h",[2]; [4],46%
same,"CR, 24-120 h (number of subjects)",[2]; [4],27
same,"Nausea, 0-120 h",[2]; [4],68%
same,"Nausea, 0-120 h (number of subjects)",[2]; [4],40
same,"Nausea, 24-120 h",[2]; [4],63%
same,"Nausea, 24-120 h (number of subjects)",[2]; [4],37
same,"Rescue medication use, 0-120 h",[2]; [4],54%
same,"Rescue medication use, 0-120 h (number of subjects)",[2]; [4],32
same,"Rescue medication use, 24-120 h",[2]; [4],41%
same,"Rescue medication use, 24-120 h (number of subjects)",[2]; [4],26
same,"Vomiting, 0-120 h",[2]; [4],59%
same,"Vomiting, 0-120 h (number of subjects)",[2]; [4],35
same,"Vomiting, 24-120 h",[2]; [4],46%
same,"Vomiting, 24-120 h (number of subjects)",[2]; [4],27
same,"CR, 24-120 h","[2]; oral 10 mg AMI days 2-4 after IV OND + 20 mg AMI day 1, all subjects, listed as AMI",46%
same,"CR, 24-120 h",[2]; [5],75%
same,"CR, 24-120 h (number of subjects)",[2]; [5],21
same,"Nausea, 24-120 h",[2]; [5],32%
same,"Nausea, 24-120 h (number of subjects)",[2]; [5],9
same,"Rescue medication use, 24-120 h",[2]; [5],14%
same,"Rescue medication use, 24-120 h (number of subjects)",[2]; [5],4
same,"Vomiting, 24-120 h",[2]; [5],21%
same,"Vomiting, 24-120 h (number of subjects)",[2]; [5],6
same,"CR, 0-120 h",[2]; [6],25%
same,"CR, 0-120 h (number of subjects)",[2]; [6],17
same,"CR, 24-120 h",[2]; [6],31%
same,"CR, 24-120 h (number of subjects)",[2]; [6],21
same,"Nausea, 0-120 h",[2]; [6],72%
same,"Nausea, 0-120 h (number of subjects)",[2]; [6],48
same,"Nausea, 24-120 h",[2]; [6],69%
same,"Nausea, 24-120 h (number of subjects)",[2]; [6],46
same,"Rescue medication use, 0-120 h",[2]; [6],55%
same,"Rescue medication use, 0-120 h (number of subjects)",[2]; [6],37
same,"Rescue medication use, 24-120 h",[2]; [6],54%
same,"Rescue medication use, 24-120 h (number of subjects)",[2]; [6],36
same,"Vomiting, 0-120 h",[2]; [6],70%
same,"Vomiting, 0-120 h (number of subjects)",[2]; [6],47
same,"Vomiting, 24-120 h",[2]; [6],55%
same,"Vomiting, 24-120 h (number of subjects)",[2]; [6],37
same,"CR, 24-120 h",[2]; [7],57%
same,"CR, 24-120 h (number of subjects)",[2]; [7],17
same,"Nausea, 24-120 h",[2]; [7],47%
same,"Nausea, 24-120 h (number of subjects)",[2]; [7],14
same,"Rescue medication use, 24-120 h",[2]; [7],23%
same,"Rescue medication use, 24-120 h (number of subjects)",[2]; [7],7
same,"Vomiting, 24-120 h",[2]; [7],43%
same,"Vomiting, 24-120 h (number of subjects)",[2]; [7],13
same,"CR, 0-120 h",[2]; [8],27%
same,"CR, 0-120 h (number of subjects)",[2]; [8],17
same,"CR, 24-120 h",[2]; [8],31%
same,"CR, 24-120 h (number of subjects)",[2]; [8],20
same,"Nausea, 0-120 h",[2]; [8],77%
same,"Nausea, 0-120 h (number of subjects)",[2]; [8],49
same,"Nausea, 24-120 h",[2]; [8],72%
same,"Nausea, 24-120 h (number of subjects)",[2]; [8],46
same,"Rescue medication use, 0-120 h",[2]; [8],58%
same,"Rescue medication use, 0-120 h (number of subjects)",[2]; [8],37
same,"Rescue medication use, 24-120 h",[2]; [8],56%
same,"Rescue medication use, 24-120 h (number of subjects)",[2]; [8],36
same,"Vomiting, 0-120 h",[2]; [8],66%
same,"Vomiting, 0-120 h (number of subjects)",[2]; [8],42
same,"Vomiting, 24-120 h",[2]; [8],58%
same,"Vomiting, 24-120 h (number of subjects)",[2]; [8],37
same,"CR, 24-120 h",[2]; [9],47%
same,"CR, 24-120 h (number of subjects)",[2]; [9],17
same,"Nausea, 24-120 h",[2]; [9],61%
same,"Nausea, 24-120 h (number of subjects)",[2]; [9],22
same,"Rescue medication use, 24-120 h",[2]; [9],36%
same,"Rescue medication use, 24-120 h (number of subjects)",[2]; [9],13
same,"Vomiting, 24-120 h",[2]; [9],47%
same,"Vomiting, 24-120 h (number of subjects)",[2]; [9],17
same,No emesis (vomiting/retching),[3]; 2.5 mg IV amisulpride,0/5
same,No significant nausea,[3]; 2.5 mg IV amisulpride,1/5
same,No emesis (vomiting/retching),[3]; 7.5 mg IV amisulpride,0/5
same,No significant nausea,[3]; 7.5 mg IV amisulpride,1/5
same,No emesis (vomiting/retching),[3]; 20 mg IV amisulpride,3/18
same,No significant nausea,[3]; 20 mg IV amisulpride,12/18
same,"Protection from nausea, dose-relationship",[3]; IV amisulpride from 2.5 mg to 20 mg,positive dose-relationship
